Measured values as given in PubChem BioAssay AID2060622 (Molecular Pharmacology Branch, DTP, NCI, 2025).
Values belong to the compound of their own block, whether it stands above or below them.

System: 242566-281-R-J2-PDC complex spheroid viability
Assay: Anticancer human tumor 242566-281-R-J2-PDC patient-derived pancreatic carcinoma cell line growth inhibition [CLK]
Conditions: for IC50: curve of first compound; for viability, T/C: stronger effect = lower value
Outline: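 Patient-derived tumor cells grown as complex spheroids with HUVEC endothelial cells and mesenchymal stem cells, treated with drug combinations. Concentrations descend in half-log steps from near clinical Cmax, or from 10 microM if Cmax unknown.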

[1] = second compound 0.0316 µM, first compound 0.0316 µM
[2] = second compound 0.0316 µM, first compound 0.1 µM
[3] = second compound 0.0316 µM, first compound 0.316 µM
[4] = second compound 0.0316 µM, first compound 1 µM
[5] = second compound 0.0316 µM, first compound 3.16 µM
[6] = second compound 0.0316 µM, first compound 10 µM
[7] = second compound 0.1 µM, first compound 0.0316 µM
[8] = second compound 0.1 µM, first compound 0.1 µM
[9] = second compound 0.1 µM, first compound 0.316 µM
[10] = second compound 0.1 µM, first compound 1 µM
[11] = second compound 0.1 µM, first compound 3.16 µM
[12] = second compound 0.1 µM, first compound 10 µM
[13] = second compound 0.316 µM, first compound 0.0316 µM
[14] = second compound 0.316 µM, first compound 0.1 µM
[15] = second compound 0.316 µM, first compound 0.316 µM
[16] = second compound 0.316 µM, first compound 1 µM
[17] = second compound 0.316 µM, first compound 3.16 µM
[18] = second compound 0.316 µM, first compound 10 µM
[19] = second compound 1 µM, first compound 0.0316 µM
[20] = second compound 1 µM, first compound 0.1 µM
[21] = second compound 1 µM, first compound 0.316 µM
[22] = second compound 1 µM, first compound 1 µM
[23] = second compound 1 µM, first compound 3.16 µM
[24] = second compound 1 µM, first compound 10 µM
[25] = second compound 3.16 µM, first compound 0.0316 µM
[26] = second compound 3.16 µM, first compound 0.1 µM
[27] = second compound 3.16 µM, first compound 0.316 µM
[28] = second compound 3.16 µM, first compound 1 µM
[29] = second compound 3.16 µM, first compound 3.16 µM
[30] = second compound 3.16 µM, first compound 10 µM
[31] = second compound 10 µM, first compound 0.0316 µM
[32] = second compound 10 µM, first compound 0.1 µM
[33] = second compound 10 µM, first compound 0.316 µM
[34] = second compound 10 µM, first compound 1 µM
[35] = second compound 10 µM, first compound 3.16 µM
[36] = second compound 10 µM, first compound 10 µM
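Further: spheroids exposed to compounds for 7 days before readout.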
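Wherever viability, T/C is given: 100% = DMSO vehicle control wells.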

IC50 (second compound 0.0316 µM): > 10000 nM | IC50 (second compound 0.1 µM): > 10000 nM | IC50 (second compound 0.316 µM): > 10000 nM | IC50 (second compound 1 µM): > 10000 nM | IC50 (second compound 3.16 µM): > 10000 nM | IC50 (second compound 10 µM): > 10000 nM
Compound: CC(CO)NC(=O)c1cc(-c2ccc(Cl)cc2)nn(-c2cnn(C)c2)c1=O (stereo not drawn) + CNC(=O)c1ccc(Nc2nc(OC3CCCC3)c3c(-c4ccc5nc(C)oc5c4)c[nH]c3n2)c(OC)c1
viability, T/C [1]: 112% | viability, T/C [2]: 105% | viability, T/C [3]: 103% | viability, T/C [4]: 124% | viability, T/C [5]: 110% | viability, T/C [6]: 104% | viability, T/C [7]: 105% | viability, T/C [8]: 107% | viability, T/C [9]: 93% | viability, T/C [10]: 102% | viability, T/C [11]: 103% | viability, T/C [12]: 96.3% | viability, T/C [13]: 96.1% | viability, T/C [14]: 90.7% | viability, T/C [15]: 83.1% | viability, T/C [16]: 95.9% | viability, T/C [17]: 101% | viability, T/C [18]: 86% | viability, T/C [19]: 76% | viability, T/C [20]: 65% | viability, T/C [21]: 75.6% | viability, T/C [22]: 79.2% | viability, T/C [23]: 86.2% | viability, T/C [24]: 89.4% | viability, T/C [25]: 60.1% | viability, T/C [26]: 62.5% | viability, T/C [27]: 59.1% | viability, T/C [28]: 58.9% | viability, T/C [29]: 63% | viability, T/C [30]: 69.2% | viability, T/C [31]: 55.6% | viability, T/C [32]: 55.8% | viability, T/C [33]: 54.1% | viability, T/C [34]: 58.8% | viability, T/C [35]: 62.7% | viability, T/C [36]: 70.2%

IC50 (second compound 0.0316 µM): > 10000 nM | IC50 (second compound 0.1 µM): > 10000 nM | IC50 (second compound 0.316 µM): 5150 nM | IC50 (second compound 1 µM): 1940 nM | IC50 (second compound 3.16 µM): 77.6 nM | IC50 (second compound 10 µM): < 31.6 nM
Compound: O=c1[nH]cc(F)c(=O)[nH]1 + CNC(=O)c1ccc(Nc2nc(OC3CCCC3)c3c(-c4ccc5nc(C)oc5c4)c[nH]c3n2)c(OC)c1
viability, T/C [1]: 108% | viability, T/C [2]: 116% | viability, T/C [3]: 83.9% | viability, T/C [4]: 91.4% | viability, T/C [5]: 66.5% | viability, T/C [6]: 53.5% | viability, T/C [7]: 96% | viability, T/C [8]: 96.5% | viability, T/C [9]: 86.4% | viability, T/C [10]: 71.7% | viability, T/C [11]: 63.9% | viability, T/C [12]: 52.2% | viability, T/C [13]: 86.1% | viability, T/C [14]: 66.9% | viability, T/C [15]: 67.6% | viability, T/C [16]: 74% | viability, T/C [17]: 53.9% | viability, T/C [18]: 41.3% | viability, T/C [19]: 67% | viability, T/C [20]: 61.2% | viability, T/C [21]: 62.6% | viability, T/C [22]: 56.9% | viability, T/C [23]: 45% | viability, T/C [24]: 25.5% | viability, T/C [25]: 51.9% | viability, T/C [26]: 50.7% | viability, T/C [27]: 44.7% | viability, T/C [28]: 46.2% | viability, T/C [29]: 38.2% | viability, T/C [30]: 22.5% | viability, T/C [31]: 48% | viability, T/C [32]: 50.2% | viability, T/C [33]: 47.3% | viability, T/C [34]: 44.2% | viability, T/C [35]: 34.2% | viability, T/C [36]: 23.2%

Compound: CC(=O)O[C@H]1C(=O)[C@@]2(C)[C@H]([C@H](OC(=O)c3ccccc3)[C@]3(O)C[C@H](OC(=O)[C@H](O)[C@@H](NC(=O)c4ccccc4)c4ccccc4)C(C)=C1C3(C)C)[C@]1(OC(C)=O)CO[C@@H]1C[C@@H]2O + CN1CCN(c2cc(C(=O)Nc3cc4cc(-c5cnn(C)c5)ccc4cn3)ccn2)CC1
IC50 (second compound 0.0316 µM): < 31.6 nM | IC50 (second compound 0.1 µM): < 31.6 nM | IC50 (second compound 0.316 µM): < 31.6 nM | IC50 (second compound 1 µM): < 31.6 nM | IC50 (second compound 3.16 µM): < 31.6 nM | IC50 (second compound 10 µM): < 31.6 nM | viability, T/C [1]: 37% | viability, T/C [2]: 33.4% | viability, T/C [3]: 28.9% | viability, T/C [4]: 26.7% | viability, T/C [5]: 32.2% | viability, T/C [6]: 34.8% | viability, T/C [7]: 43.7% | viability, T/C [8]: 29.1% | viability, T/C [9]: 27.7% | viability, T/C [10]: 25.2% | viability, T/C [11]: 29.1% | viability, T/C [12]: 28.6% | viability, T/C [13]: 15.9% | viability, T/C [14]: 15.5% | viability, T/C [15]: 15.1% | viability, T/C [16]: 17.2% | viability, T/C [17]: 25% | viability, T/C [18]: 31.3% | viability, T/C [19]: 5.85% | viability, T/C [20]: 4.53% | viability, T/C [21]: 5.01% | viability, T/C [22]: 4.32% | viability, T/C [23]: 5.32% | viability, T/C [24]: 5.54% | viability, T/C [25]: 7.09% | viability, T/C [26]: 7.07% | viability, T/C [27]: 7.24% | viability, T/C [28]: 7.25% | viability, T/C [29]: 7.67% | viability, T/C [30]: 7.22% | viability, T/C [31]: 1.45% | viability, T/C [32]: 1.31% | viability, T/C [33]: 1% | viability, T/C [34]: 1.28% | viability, T/C [35]: 1.57% | viability, T/C [36]: 1.05%

Compound: O=C(c1cc(Cc2n[nH]c(=O)c3ccccc23)ccc1F)N1CCN(C(=O)C2CC2)CC1 + CN1CCN(c2cc(C(=O)Nc3cc4cc(-c5cnn(C)c5)ccc4cn3)ccn2)CC1
IC50 (second compound 0.0316 µM): > 10000 nM | IC50 (second compound 0.1 µM): > 10000 nM | IC50 (second compound 0.316 µM): < 31.6 nM | IC50 (second compound 1 µM): < 31.6 nM | IC50 (second compound 3.16 µM): < 31.6 nM | IC50 (second compound 10 µM): < 31.6 nM | viability, T/C [1]: 108% | viability, T/C [2]: 98% | viability, T/C [3]: 94.9% | viability, T/C [4]: 95.3% | viability, T/C [5]: 89.6% | viability, T/C [6]: 80.3% | viability, T/C [7]: 96.8% | viability, T/C [8]: 96.9% | viability, T/C [9]: 79.1% | viability, T/C [10]: 85.6% | viability, T/C [11]: 88.3% | viability, T/C [12]: 62.8% | viability, T/C [13]: 33.5% | viability, T/C [14]: 34.3% | viability, T/C [15]: 29.7% | viability, T/C [16]: 31.1% | viability, T/C [17]: 29.2% | viability, T/C [18]: 23.2% | viability, T/C [19]: 5.93% | viability, T/C [20]: 3.31% | viability, T/C [21]: 4.81% | viability, T/C [22]: 4.43% | viability, T/C [23]: 5.12% | viability, T/C [24]: 5.59% | viability, T/C [25]: 7.36% | viability, T/C [26]: 7.02% | viability, T/C [27]: 6.98% | viability, T/C [28]: 7.16% | viability, T/C [29]: 7.79% | viability, T/C [30]: 10.4% | viability, T/C [31]: 1.95% | viability, T/C [32]: 2.1% | viability, T/C [33]: 1.53% | viability, T/C [34]: 2.95% | viability, T/C [35]: 2.41% | viability, T/C [36]: 1.71%
